Reference: PubChem BioAssay (NCI)
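Interpolation was linear, between the two tested concentrations surrounding the appropriate level; five concentrations were tested over 48 hours in 96-well plates. At the TGI there is no net growth.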

Tests used:
Experiment in all cases: NCI tumour cell line growth inhibition, 48 h
786-0 renal = system: 786-0 renal
A549 NSCLC = system: A549 NSCLC
ACHN renal = system: ACHN renal
CAKI-1 renal = system: CAKI-1 renal
CCRF-CEM leukemia = system: CCRF-CEM leukemia
COLO 205 colon = system: COLO 205 colon
DLD-1 colon = system: DLD-1 colon
DMS 114 small cell lung = system: DMS 114 small cell lung
DMS 273 small cell lung = system: DMS 273 small cell lung
EKVX NSCLC = system: EKVX NSCLC
HCC-2998 colon = system: HCC-2998 colon
HCT-15 colon = system: HCT-15 colon
HL-60(TB) leukemia = system: HL-60(TB) leukemia
HOP-18 NSCLC = system: HOP-18 NSCLC
HOP-62 NSCLC = system: HOP-62 NSCLC
HOP-92 NSCLC = system: HOP-92 NSCLC
HT29 colon = system: HT29 colon
IGROV1 ovarian = system: IGROV1 ovarian
K-562 leukemia = system: K-562 leukemia
KM12 colon = system: KM12 colon
KM20L2 colon = system: KM20L2 colon
LOX IMVI melanoma = system: LOX IMVI melanoma
LXFL 529 NSCLC = system: LXFL 529 NSCLC
M14 melanoma = system: M14 melanoma
MALME-3M melanoma = system: MALME-3M melanoma
MOLT-4 leukemia = system: MOLT-4 leukemia
NCI-H23 lung = system: NCI-H23 lung
NCI-H460 lung = system: NCI-H460 lung
NCI-H522 lung = system: NCI-H522 lung
OVCAR-3 ovarian = system: OVCAR-3 ovarian
OVCAR-4 ovarian = system: OVCAR-4 ovarian
OVCAR-5 ovarian = system: OVCAR-5 ovarian
OVCAR-8 ovarian = system: OVCAR-8 ovarian
RPMI-8226 leukemia = system: RPMI-8226 leukemia
RXF 393 renal = system: RXF 393 renal
RXF-631 renal = system: RXF-631 renal
SF-268 CNS = system: SF-268 CNS
SF-295 CNS = system: SF-295 CNS
SF-539 CNS = system: SF-539 CNS
SK-MEL-2 melanoma = system: SK-MEL-2 melanoma
SK-MEL-28 melanoma = system: SK-MEL-28 melanoma
SK-MEL-5 melanoma = system: SK-MEL-5 melanoma
SK-OV-3 ovarian = system: SK-OV-3 ovarian
SN12C renal = system: SN12C renal
SNB-19 CNS = system: SNB-19 CNS
SNB-75 CNS = system: SNB-75 CNS
SW-620 colon = system: SW-620 colon
TK-10 renal = system: TK-10 renal
U251 CNS = system: U251 CNS
UACC-257 melanoma = system: UACC-257 melanoma
UACC-62 melanoma = system: UACC-62 melanoma
UO-31 renal = system: UO-31 renal
A498 renal = system: A498 renal
HCT-116 colon = system: HCT-116 colon
M19-MEL melanoma = system: M19-MEL melanoma
NCI-H226 lung = system: NCI-H226 lung
SNB-78 CNS = system: SNB-78 CNS
SR leukemia = system: SR leukemia
XF 498 CNS = system: XF 498 CNS

Measured: TGI

COC(=O)c1c(C(=O)OC)c(C(=O)OC)c(C(=O)OC)c1C(=O)OC
not listed: A498 renal | HCT-116 colon | M19-MEL melanoma | NCI-H226 lung | SNB-78 CNS | SR leukemia | XF 498 CNS
> 100 µM: all other assays above

O=C(O)c1cc2c3c(c1)[C@H]1C=CC[C@H]1CN3CC1CC=CC21 (some centres undefined)
not listed: RXF-631 renal | SK-MEL-28 melanoma
> 100 µM: all other assays above
